Measurements as given in ChEMBL document CHEMBL4765471, “1-Methyl-1H-pyrazole-5-carboxamide Derivatives Exhibit Unexpected Acute Mammalian Toxicity” (J Med Chem, 2021).

Columns and labels:
[1] = Inhibition of Haemonchus contortus by L4 development assay; assay type: functional
[2] = Toxicity in orally dosed Swiss mouse assessed as induction of observable clinical effects measured 2 to 4 days after dosing; assay type: organism-based; settings: in vivo, po, time 2-4 day
[3] = Toxicity in human MCF-10A cells; assay type: cell-based
[4] = Selectivity index, ratio of IC50 for toxicity in rat FAO cells assessed as reduction in cellular respiration to IC50 for inhibition of Haemonchus contortus by L4 development assay
[5] = Toxicity in rat FAO cells assessed as reduction in cell proliferation incubated for 48 hrs by crystal violet staining based assay
[6] = Toxicity in rat FAO cells assessed as reduction in cellular respiration incubated over 1 hrs by extracellular flux analyzer based assay; assay type: cell-based
[7] = Toxicity in Swiss mouse assessed as induction of reversible motor depression at 5 mg/kg, po measured at first 15 mins post dosing; assay type: organism-based; settings: in vivo, 0.25 h
[8] = Toxicity in male Swiss mouse assessed as induction of reversible motor depression at 20 mg/kg, po; assay type: organism-based; settings: in vivo
[9] = Toxicity in female Swiss mouse assessed as induction of reversible motor depression at 20 mg/kg, po; assay type: organism-based; settings: in vivo
[10] = Toxicity in male Swiss mouse assessed as induction of reversible motor depression at 50 mg/kg, po; assay type: organism-based; settings: in vivo
[11] = Toxicity in female Swiss mouse assessed as induction of reversible motor depression at 30 mg/kg, po; assay type: organism-based; settings: in vivo

Row | SMILES | IC50 [1] [µM] | MTD [2] [mg/kg] | IC50 [3] [µM] | Ratio IC50 [4] | IC50 at 48 h [5] [µM] | IC50 at 1 h [6] [µM] | Activity [7] | Activity [8] | Activity [9] | Activity [10] | Activity [11]
1 | Cn1ncc(Cl)c1C(=O)NCc1ccc(Oc2ccc(Cl)nc2)cc1 | 0.03 | 1 | > 50 | 63 | < 6 | 1.9 | Toxic |  |  |  | 
2 | Cn1ncc(Cl)c1C(=O)NCc1ccc(-c2noc(C3CC3)n2)cc1 | 0.0009 | 1 | 24.3 | 4144 | < 6 | 3.73 | Toxic |  |  |  | 
3 | CCc1nc(-c2ccc(CNC(=O)c3ccnn3C)cc2)no1 | 0.2 | 1 | > 100 | 7 | < 6 | 1.3 | Toxic |  |  |  | 
4 | Cc1nn(C)c(C(=O)NCc2ccc(Oc3ccc(Cl)nc3)cc2)c1Cl | 0.0003 | 1 | > 50 | 500 | < 6 | 0.15 | Toxic |  |  |  | 
5 | CCc1nn(C)c(C(=O)NCc2ccc(Oc3ccc(Cl)cc3)cc2)c1Cl | 0.08 |  | 8.7 | 6 | < 6 | 0.51 |  |  |  |  | 
6 | Cc1nn(C)c(C(=O)NCc2ccc(Oc3ccc(Cl)cc3)cc2)c1Cl | < 0.0007 |  | 50 | 181 | < 6 | 1.27 |  |  |  |  | 
7 | Cn1ncc(Cl)c1C(=O)NCc1ccc(Oc2ccc(Cl)cc2)cc1 | 0.001 | 5 | > 50 | 1700 | < 6 | 1.7 |  | Toxic | Toxic |  | 
8 | CCc1nc(-c2ccc(CNC(=O)c3c(Cl)c(CC)nn3C)cc2)no1 | 0.002 |  | > 50 | 80 | < 6 | 0.16 |  |  |  |  | 
9 | Cc1ccc(Oc2ccc(CNC(=O)c3c(F)cnn3C)cc2)cc1 | 0.01 | 20 | 13.7 | 430 | < 6 | 4.3 |  |  |  | Toxic | Toxic
10 | CCc1nn(C)c(C(=O)NCc2ccc(Oc3ccc(C)cc3)cc2)c1Cl [TOLFENPYRAD] | 0.02 | 1 | 33.7 | 55 | < 6 | 1.1 | Toxic |  |  |  | 
